Patent US20220184020A1, “Polyphenols as Modulators of Platelet Function” (Northeastern University, priority 2019, published 2022)

Legend:
washed platelets = test: Platelet total tyrosine phosphorylation (4G10 immunoblot); format: cell-based, human; conditions: in response to CRPXL, TRAP-6 and U46619; RA-treated platelets
Method: The molecular mechanisms involved in the functional impact of RA on platelets was clarified. The RA target FYN is a protein-tyrosine kinase and platelet activation is coordinated by several kinases that phosphorylate adaptors, enzymes, and cytoskeletal proteins downstream of platelet surface receptors. Given this connection, RA may inhibit platelets function by blocking agonist-induced protein tyrosine phosphorylation.
Human blood collection was performed as previously described in accordance with the Declaration of Helsinki and ethics regulations with Institutional Review Board approval from Brigham and Women's Hospital (P001526). […] Citrated whole blood underwent centrifugation with a slow break (177×g, 20 minutes) and the PRP fraction was acquired for subsequent experiments. For washed platelets, PRP was incubated with 1 μM prostaglandin E1 (Sigma, P5515) and immediately underwent centrifugation with a slow break (1000×g, 5 minutes). Platelet-poor plasma was aspirated, and pellets resuspended in platelet resuspension buffer (PRB; 10 mM Hepes, 140 mM NaCl, 3 mM KCl, 0.5 mM MgCl2, 5 mM NaHCO3, 10 mM glucose, pH 7.4).
Washed platelets were pre-treated with RA for 1 hour, followed by agonist stimulation for 10 minutes. Platelets were lysed on ice with RIPA Lysis Buffer System® (Santa Cruz®, sc-24948) and sample supernatants clarified via centrifugation (14,000 rpm, 5 min, 4° C.). […]

platelets = test: Platelet aggregation by turbidimetric aggregometry; format: cell-based, human; conditions: PRP pre-treated with RA for 1 hour; collagen 1 μg/mL
Method: To validate the predictive power of the developed framework, direct experimental evidence of the predicted mechanistic role of Rosmarinic acid (RA) in VD was sought. […] Therefore, whether RA influenced platelet activation in vitro was evaluated. As platelets can be stimulated through different activation pathways, RA effects can, in principle, occur in any of them. To test these different possibilities, platelets were pretreated with RA and then activated with: 1) glycoprotein VI by collagen or collagen-related peptide (Collagen/CRPXL); 2) protease-activated receptors-1,4 by thrombin receptor activator peptide-6 (TRAP-6); 3) prostanoid thromboxane receptor by the thromboxane A2 analogue (U46619); and 4) P2Y1/12 receptor stimulation by adenosine diphosphate (ADP). […] Platelet aggregation was measured by turbidimetric aggregometry. […] Platelet aggregation was monitored for 6 minutes at 37° C. with a stir speed of 1000 rpm and the maximum extend of aggregation recorded using AGGRO/LINK®8 software. In some cases, dense granule release was simultaneously recorded by supplementing samples with Chrono-Lume® (Chrono-Log®, 395) according to the manufacturer's instructions.

O=C(/C=C/c1ccc(O)c(O)c1)O[C@H](Cc1ccc(O)c(O)c1)C(=O)O [rosmarinic acid]
total tyrosine phosphorylation (washed platelets): dose-dependent reduction | collagen-mediated platelet aggregation (platelets): inhibits
